Data on 14 compounds can be found in US7470711B2, “Piperidinyl substituted cyclohexane-1,4-diamines” (Janssen Pharmaceutica N.V., priority 2005, dated 2008).

Data set [1] deals with T1, α1a-AR (Homo sapiens, UniProt P35348).
T1 construct: expressed in transfected cells; host or cells: COS-7 cells (membranes)
T1 sequence (P35348 1-455 isoform P35348-4): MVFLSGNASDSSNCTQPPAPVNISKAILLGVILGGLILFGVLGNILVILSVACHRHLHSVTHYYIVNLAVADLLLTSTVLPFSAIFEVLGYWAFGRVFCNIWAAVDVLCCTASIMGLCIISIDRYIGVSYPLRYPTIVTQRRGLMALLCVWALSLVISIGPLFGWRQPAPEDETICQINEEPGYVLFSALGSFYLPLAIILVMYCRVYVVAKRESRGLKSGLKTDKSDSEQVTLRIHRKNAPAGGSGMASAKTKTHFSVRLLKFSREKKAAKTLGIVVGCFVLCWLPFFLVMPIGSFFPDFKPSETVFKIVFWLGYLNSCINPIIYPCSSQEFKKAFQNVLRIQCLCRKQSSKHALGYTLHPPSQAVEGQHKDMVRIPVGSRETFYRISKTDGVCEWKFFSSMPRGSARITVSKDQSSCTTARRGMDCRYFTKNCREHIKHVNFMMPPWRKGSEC
In words: α1-Adrenergic receptor radio-ligand binding assay, α1a subtype. As to the method: (§1) Membranes were prepared from COS-7 cells (African Green monkey kidney SV40-transformed cells) that had been transfected with one of the three α1-AR subtypes (Genbank accession number for the α1a subtype: AF013261; Genbank accession number for the α1b subtype: NM000679; Genbank accession number for the α1d subtype: NM000678) using the following method: COS cells from ten 100 mm tissue culture plates were scraped into a 5 mL volume of TE (a mixture of 50 mM Tris-HCl, 5 mM EDTA, pH 7.4). […] The disrupted cells were centrifuged at 1000×g for 10 min at 4° C. Supernatants were centrifuged at 34,500×g for 20 min at 4° C. The membrane pellets were suspended in a 2 mL volume of TNE (a mixture of 50 mM Tris-HCl, 5 mM EDTA and 150 mM NaCl at pH 7.4). An aliquot of the membrane suspension was stored at −70° C. until use. The protein concentration was determined using the BioRad “DC” protein assay kit following membrane solubilization with Triton X-100.
(§2) Triplicate determinations of radio-ligand binding in the presence of increasing concentrations of testing compound were made. The reagents were added to 96-well polypropylene plate wells. […] The plate was incubated at rt for 1 hr. The contents of the wells were filtered through a glass filter (type C) (GF/C) membrane Unifilter plate (Packard Instruments) using the Packard Filtermate cell harvester. The filter plates were dried in a vacuum oven for 30 min at 40° C. 25 μL Microscint 20 liquid scintillation fluid (Packard Instuments) was added to each well. The radioactive content was analyzed in the TopCount microplate scintillation counter (Packard Instruments).

The target in data set [2] is T2, α1b-AR (Homo sapiens, UniProt P35368).
T2 construct: expressed in transfected cells; host or cells: COS-7 cells (membranes)
T2 sequence (P35368 1-520): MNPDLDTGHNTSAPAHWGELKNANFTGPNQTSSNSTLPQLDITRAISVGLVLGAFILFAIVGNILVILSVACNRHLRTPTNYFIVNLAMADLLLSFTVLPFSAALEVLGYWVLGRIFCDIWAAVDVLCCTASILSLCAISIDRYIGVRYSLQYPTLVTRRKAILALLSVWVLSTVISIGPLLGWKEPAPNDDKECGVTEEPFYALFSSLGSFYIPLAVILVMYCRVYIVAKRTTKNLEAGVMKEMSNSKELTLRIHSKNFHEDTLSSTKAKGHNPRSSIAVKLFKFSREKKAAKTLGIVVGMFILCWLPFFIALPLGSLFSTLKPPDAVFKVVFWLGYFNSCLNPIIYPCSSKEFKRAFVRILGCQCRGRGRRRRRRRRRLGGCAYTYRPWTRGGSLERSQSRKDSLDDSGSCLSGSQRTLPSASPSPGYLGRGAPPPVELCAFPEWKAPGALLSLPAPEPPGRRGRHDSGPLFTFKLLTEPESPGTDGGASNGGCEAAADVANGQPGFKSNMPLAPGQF
Kind of data set: α1-Adrenergic receptor radio-ligand binding assay, α1b subtype. On the procedure: as §1, §2

The target of data set [3] is T3, α1d-AR (Homo sapiens, UniProt P25100).
T3 construct: expressed in transfected cells; host or cells: COS-7 cells (membranes)
T3 sequence (P25100 1-572): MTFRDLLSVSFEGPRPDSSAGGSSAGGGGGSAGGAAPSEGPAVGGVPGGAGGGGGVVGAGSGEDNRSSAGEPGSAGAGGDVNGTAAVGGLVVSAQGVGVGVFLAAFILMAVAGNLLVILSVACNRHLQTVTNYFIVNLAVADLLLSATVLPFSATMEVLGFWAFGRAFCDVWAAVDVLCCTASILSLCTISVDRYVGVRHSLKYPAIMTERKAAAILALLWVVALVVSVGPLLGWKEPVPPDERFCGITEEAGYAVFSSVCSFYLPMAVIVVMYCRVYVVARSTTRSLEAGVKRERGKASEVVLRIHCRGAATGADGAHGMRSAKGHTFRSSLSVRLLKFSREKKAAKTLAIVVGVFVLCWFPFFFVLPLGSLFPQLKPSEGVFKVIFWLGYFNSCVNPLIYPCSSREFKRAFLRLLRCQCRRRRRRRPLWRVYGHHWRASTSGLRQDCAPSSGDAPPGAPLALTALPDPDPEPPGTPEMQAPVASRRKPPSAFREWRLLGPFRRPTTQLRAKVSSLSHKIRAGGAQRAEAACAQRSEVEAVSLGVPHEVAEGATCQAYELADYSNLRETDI
Kind of data set: α1-Adrenergic receptor radio-ligand binding assay, α1d subtype. As to the method:
as §1, §2

Where [4] appears, read: 125I-HEAT, membranes of COS-7 cells transfected with α1a subtype, rt 1 hr, read-out: Receptor Binding, Ki α1a-AR.
Setting [5] is: 125I-HEAT, membranes of COS-7 cells transfected with α1b subtype, rt 1 hr, read-out: Receptor Binding, Ki α1b-AR.
Setting [6] is: 125I-HEAT, membranes of COS-7 cells transfected with α1d subtype, rt 1 hr, read-out: Receptor Binding, Ki α1d-AR.
Where [7] appears, read: read-out: Receptor Binding, Ki α1a-AR.

Counter-ions that a name gives are not always drawn. Like-named read-outs stand apart in the source and are kept apart here.

Turning to `COc1ccc(S(=O)(=O)N[C@H]2CC[C@@H](N3CCC(c4ccccc4OC(C)C)CC3)CC2)cc1OC` (as salt: fumarate) [Cpd 1, N-cis-{4-[4-(2-isopropoxy-phenyl)-piperidin-1-yl]-cyclohexyl}-3,4-dimethoxy-benzenesulfonamide], the melting point turned out to be 221 °C.
On the same count and under the same terms, with `COc1ccc(S(=O)(=O)N[C@H]2CC[C@@H](N3CCC(c4ccccc4OCC(F)(F)F)CC3)CC2)cc1OC` (as salt: fumarate) [Cpd 5, 3,4-dimethoxy-N-cis-(4-{4-[2-(2,2,2-trifluoro-ethoxy)-phenyl]-piperidin-1-yl}-cyclohexyl)-benzenesulfonamide] the figure was 201 °C (dec.).
For the compound `CC(C)Oc1ccccc1C1CCN([C@H]2CC[C@@H](NS(=O)(=O)c3ccc(F)c(F)c3)CC2)CC1` [Cpd 3, 3,4-difluoro-N-cis-{4-[4-(2-isopropoxy-phenyl)-piperidin-1-yl]-cyclohexyl}-benzenesulfonamide], the melting point came to 176 °C. In data set [1] (setting [4]), the Ki was 3 nM. Moreover, the Ki in data set [2] (setting [5]) stood at 470 nM. Besides, the Ki in data set [3] (setting [6]) came out at 7.3 nM.
The compound `CC(C)Oc1ccccc1C1CCN([C@H]2CC[C@H](NS(=O)(=O)c3ccc(F)c(F)c3)CC2)CC1` [Cpd 4, 3,4-difluoro-N-trans-{4-[4-(2-isopropoxy-phenyl)-piperidin-1-yl]-cyclohexyl}-benzenesulfonamide] showed a melting point of 239 °C. Further, in data set [3], the affinity, expressed as Ki, was 88.6 nM.
Take `O=S(=O)(N[C@H]1CC[C@@H](N2CCC(c3ccccc3OCC(F)(F)F)CC2)CC1)c1ccc2c(c1)OCCO2` [Cpd 13, 2,3-dihydro-benzo[1,4]dioxine-6-sulfonic acid cis-(4-{4-[2-(2,2,2-trifluoro-ethoxy)-phenyl]-piperidin-1-yl}-cyclohexyl)-amide]: the melting point was 190 °C. Moreover, affinity in data set [1] was put at a Ki of 4 nM. Besides, the Ki in data set [2] turned out to be 92 nM. The compound further showed a Ki in data set [3] of 3 nM.
`O=S(=O)(N[C@H]1CC[C@H](N2CCC(c3ccccc3OCC(F)(F)F)CC2)CC1)c1ccc2c(c1)OCCO2` [Cpd 14, 2,3-dihydro-benzo[1,4]dioxine-6-sulfonic acid trans-(4-{4-[2-(2,2,2-trifluoro-ethoxy)-phenyl]-piperidin-1-yl}-cyclohexyl)-amide] gave a melting point of 146 °C. This compound gave a Ki in data set [1] of 2.2 nM. In data set [2], this compound gave a Ki of 90.6 nM. The compound further gave a Ki in data set [3] of 26 nM.
As for `COc1ccc(Cl)cc1S(=O)(=O)N[C@H]1CC[C@@H](N2CCC(c3ccccc3OCC(F)(F)F)CC2)CC1` [Cpd 17, 5-chloro-2-methoxy-N-cis-(4-{4-[2-(2,2,2-trifluoro-ethoxy)-phenyl]-piperidin-1-yl}-cyclohexyl)-benzenesulfonamide], the melting point is 200 °C. The Ki in data set [1] (setting [4]) amounted to 6.2 nM. For the same compound, the Ki in data set [2] (setting [5]) amounted to 216 nM. In data set [3], the Ki was 1.5 nM.
Turning to `COc1ccc(Cl)cc1S(=O)(=O)N[C@H]1CC[C@H](N2CCC(c3ccccc3OCC(F)(F)F)CC2)CC1` [Cpd 18, 5-chloro-2-methoxy-N-trans-(4-{4-[2-(2,2,2-trifluoro-ethoxy)-phenyl]-piperidin-1-yl}-cyclohexyl)-benzenesulfonamide], the melting point came out at 197 °C. The Ki in data set [1] worked out at 10.4 nM. Moreover, the Ki in data set [2] (setting [5]) worked out at 703 nM. Further, in data set [3] (setting [6]), the Ki came out at 35.9 nM.
Taken in the same sequence, the figures for `O=S(=O)(N[C@H]1CC[C@@H](N2CCC(c3ccccc3OCC(F)(F)F)CC2)CC1)c1cc(Cl)ccc1F` [Cpd 19, 5-chloro-2-fluoro-N-cis-(4-{4-[2-(2,2,2-trifluoro-ethoxy)-phenyl]-piperidin-1-yl}-cyclohexyl)-benzenesulfonamide] were 204 °C, 5.8 nM, 181 nM and 0.97 nM.
As for `O=S(=O)(N[C@H]1CC[C@H](N2CCC(c3ccccc3OCC(F)(F)F)CC2)CC1)c1cc(Cl)ccc1F` [Cpd 20, 5-chloro-2-fluoro-N-trans-(4-{4-[2-(2,2,2-trifluoro-ethoxy)-phenyl]-piperidin-1-yl}-cyclohexyl)-benzenesulfonamide], the melting point came out at 227 °C. For the same compound, affinity in data set [1] was put at a Ki of 4.7 nM. Moreover, the Ki in data set [2] (setting [5]) turned out to be 786 nM. Besides, in data set [3] (setting [6]), the Ki came out at 43.9 nM.
The compound `O=S(=O)(N[C@H]1CC[C@@H](N2CCC(c3ccccc3OCC(F)(F)F)CC2)CC1)c1cccc(OC(F)F)c1` [Cpd 23, 3-difluoromethoxy-N-cis-(4-{4-[2-(2,2,2-trifluoro-ethoxy)-phenyl]-piperidin-1-yl}-cyclohexyl)-benzenesulfonamide] showed a melting point of 105 °C. The Ki in data set [1] (setting [4]) came to 7 nM. In data set [2] (setting [5]), the Ki worked out at 261 nM. The Ki in data set [3] (setting [6]) worked out at 5.9 nM.
Turning to `O=S(=O)(N[C@H]1CC[C@H](N2CCC(c3ccccc3OCC(F)(F)F)CC2)CC1)c1cccc(OC(F)F)c1` [Cpd 24, 3-difluoromethoxy-N-trans-(4-{4-[2-(2,2,2-trifluoro-ethoxy)-phenyl]-piperidin-1-yl}-cyclohexyl)-benzenesulfonamide], the melting point stood at 169 °C. Also, the Ki in data set [1] (setting [4]) is 12 nM. Also, in data set [2] (setting [5]), the Ki stood at 355 nM. Further, the Ki in data set [3] (setting [6]) was 70 nM.
For the compound `COc1ccc(S(=O)(=O)N[C@H]2CC[C@@H](N3CCC(c4cc(F)ccc4OC(C)C)CC3)CC2)cc1OC` [Cpd 33, N-cis-{4-[4-(5-fluoro-2-isopropoxy-phenyl)-piperidin-1-yl]-cyclohexyl}-3,4-dimethoxy-benzenesulfonamide], the Ki in data set [1] (setting [7]) was determined as 3.3 nM; in data set [2] (setting [5]), 299 nM; in data set [3] (setting [6]), 1.6 nM.
`COc1ccc(S(=O)(=O)N[C@H]2CC[C@H](N3CCC(c4cc(F)ccc4OC(C)C)CC3)CC2)cc1OC` [Cpd 34, N-trans-{4-[4-(5-fluoro-2-isopropoxy-phenyl)-piperidin-1-yl]-cyclohexyl}-3,4-dimethoxy-benzenesulfonamide]: the Ki in data set [1] (setting [7]) came out at 43 nM; in data set [2] (setting [5]), 1490 nM; in data set [3] (setting [6]), 53 nM.
